Laboratory results as given in patent US3947589A (priority 1971, dated 1976).
Read-outs that look alike come from different tables or passages of the source.

What was measured:
[1] = tested on: Piricularia oryzae (rice blast); conditions: 500 ppm
[2] = tested on: Piricularia oryzae (rice blast); assay: whole plant or invertebrate; conditions: Pyricularia oryzae, 48 h, read-out: Preventive value
[3] = tested on: cucumber downy mildew (Pseudoperonospore cubensis); assay: inhibitory test against cucumber downy mildew; assay type: in vivo; conditions: for pest or weed control at 500 ppm: Cucumis sativus; for Number of leaves infected (outside) / Number of leaves infected (inside): 23rd of May
Experimental: Experimental example 4 : inhibitory test against cucumber downy mildew
Cucumber seeds (variety "Shinhikari No. A") were planted in seed-beds at the biginning of October, three cucumber seeds being planted per seed-bed, and they were grown in a greenhouse made of vinyl resin. This experiment was performed as three-repeated cultivation.
The test plants treated thus were left to spontaneous infection.

[4] = tested on: citrus melanose; assay: inhibitory test against Citrus melanose; assay type: in vivo; conditions: for pest or weed control at 500 ppm: read-out: Preventive value; for Extent of infection: Table 5, untreated 57; for Extent of infection / Extent infection: 500 ppm, about 2-3 weeks after inoculation; for Extent infection: Table 4, untreated 53
Description: Experimental example 3 : inhibitory test against Citrus melanose a. Test plant: shoots of about 3 years grown seedlings of citrus "Onshu" (2 - 4 trees planted in about 20 cm claypot) b. Solution used for test
As control fungicide, "Daisen" [trade (trade name, product of Nihon-NohyakuCo., Ltd., wettable powder containing zinc ethylene bis (dithiocarbamate)]was sprayed at 1000 ppm. c. Inoculum and the method of inoculation
In order to prepare suspension of pycnospores, distilled and sterilized water was poured on the culture twigs with citrus melanose in a test tube. The suspension containing about 200 of pycnospores was prepared under the observation of microscope of 150 magnification and then sprayed inoculation on the test plants treated as above. After inoculation, the test plants were placed in the inoculation box at 27°C and relative humidity of above 95% for about 3 days. Then, they were transferred into the greenhouse. […]
d. The method of inspection
About 2 - 3 weeks after inoculation, the entire leaves of shoots was inspected for the development of disease and the state of infection was evaluated on a scale of 0 to 3 as follows:
1 : 1 -- 50 of disease spots
2 : 51 -- 150 of disease spots
3 : above 151 of disease spots
The extent of infection and the preventive value were calculated according to the following equations (I) and (II), respectively. [formula] wherein n1, n2 and n3 are number of leaves inspected to be the states of infection 1, 2 and 3, respectively and N is the total number of leaves. [formula]

[5] = acute oral toxicity test; conditions: in vivo
Description: The results of an acute oral toxicity test of the active ingredient used in the present invention is that its LD50 is about 6 g/kg in the case of N-lauroyl-L-valine. This is an extremely low toxicity.

[6] = Table 1, 50 ml per pot, two days after infection, untreated 33.0
[7] = Table 6, 500 ppm, four sprays, inside of leaves, read-out: Preventive value (inside)
[8] = Table 6, 500 ppm, four sprays, outside of leaves, read-out: Preventive value (outside)
[9] = Table 6, 500 ppm, four sprays, untreated 12
[10] = Table 6, 500 ppm, four sprays, untreated 22
[11] = Table 5, about 2-3 weeks after inoculation
[12] = Table 7, 500 ppm, four sprays, inside of leaves, read-out: Preventive value (inside)
[13] = Table 7, 500 ppm, four sprays, outside of leaves, read-out: Preventive value (outside)
[14] = Table 7, 500 ppm, four sprays, untreated 13
[15] = Table 7, 500 ppm, four sprays, untreated 15
[16] = Table 4, about 2-3 weeks after inoculation
[17] = read-out: Preventive value (inside)
[18] = read-out: Preventive value (outside)

Row | Compound | Average number of disease lesions per leaf [1, 6] | pest or weed control at 500 ppm [2] [%] | Number of leaves infected (outside) [3, 9] | Number of leaves infected (inside) [3, 10] | pest or weed control at 500 ppm [4, 16] [%] | Extent infection [4] [%] | further results
1 | CCCCCCCCCCCCCC(=O)N[C@@H](CCC(=O)O)C(=O)O [compound 20] | 9.9 | 70 | – | – | – | – | –
2 | CCCCCCCC/C=C\CCCCCCCC(=O)NCC(=O)O [compound 5] | 11.0 | 67 | – | – | – | – | –
3 | CCCCCCCCCCCC(=O)N[C@@H](CCCNC(N)=O)C(=O)OC [compound 26] | – | 82 | – | – | – | – | Average number of disease lesions per leaf ([1]; Table 2, untreated 34.2): 6.2
4 | CCCCCCCCCC(=O)N[C@@H](Cc1ccccc1)C(=O)O [compound 12] | 11.6 | 65 | 4 | 6 | – | – | pest or weed control at 500 ppm [3, 7]: 73%; pest or weed control at 500 ppm [3, 8]: 67%
5 | CCCCCCCCCCCCCC(=O)N[C@@H](CCCCN)C(=O)OC [compound 23] | – | 82 | – | – | – | – | pest or weed control at 500 ppm [4, 11]: 64%; Extent of infection [4]: 21%; pest or weed control at 500 ppm [3, 12]: 47%; pest or weed control at 500 ppm [3, 13]: 45%; Number of leaves infected (outside) [3, 14]: 7; Number of leaves infected (inside) [3, 15]: 8; Average number of disease lesions per leaf ([1]; Table 2, untreated 34.2): 6.2
6 | CCCCCCCCCCCCCCCCCC(=O)N[C@@H](Cc1ccccc1)C(=O)O [compound 4] | 7.3 | 78 | 7 | 10 | 60 | 21 | pest or weed control at 500 ppm [3, 17]: 47%; pest or weed control at 500 ppm [3, 18]: 42%
7 | CCCCCCCCCCCCCCCCCC(=O)NCC(=O)O [compound 6] | 6.6 | 80 | – | – | 68 | 17 | –
8 | CCCCCCCCCCCC(=O)NC(Cc1ccccc1)C(=O)O (centres unmarked) [compound 8] | 11.0 | 67 | 3 | 7 | 59 | 22 | pest or weed control at 500 ppm [3, 7]: 68%; pest or weed control at 500 ppm [3, 8]: 75%
9 | CCCCCCCCCCCCCC(=O)N[C@@H](Cc1c[nH]cn1)C(=O)OC [compound 25] | – | 85 | – | – | – | – | Average number of disease lesions per leaf ([1]; Table 2, untreated 34.2): 5.1
10 | CCCCCCCCCCCC(=O)N[C@H](C(=O)OCC)C(C)C [compound 19] | 7.3 | 78 | – | – | – | – | –
11 | CCCCCCCCCCCC(=O)NC(Cc1ccc([N+](=O)[O-])cc1)C(=O)O (centres unmarked) [compound 3] | 8.9 | 73 | 6 | 9 | 50 | 26 | pest or weed control at 500 ppm [3, 7]: 59%; pest or weed control at 500 ppm [3, 8]: 50%
12 | C=CCCCCCCCCC(=O)N[C@@H](CC(C)C)C(=O)O [compound 14] | 5.6 | 83 | – | – | 65 | 19 | –
13 | CCCCCCCCCCCC(=O)N[C@H](C(=O)O)[C@@H](C)O [compound 11] | 7.6 | 77 | – | – | – | – | –
14 | CCCCCCCCCCCC(=O)N[C@@H](CC(=O)O)C(=O)O [compound 10] | 11.6 | 65 | – | – | 74 | 14 | –
15 | CCCCCCCCCC(=O)NC(CCSC)C(=O)O (centres unmarked) [compound 16] | 11.0 | 67 | – | – | 54 | 24 | –
16 | CCCCCCCCCCCCCC(=O)N[C@@H](CCCNC(=N)N)C(=O)OCC [compound 21] | – | 75 | – | – | – | – | pest or weed control at 500 ppm [4, 11]: 73%; Extent of infection [4]: 15%; pest or weed control at 500 ppm [3, 17]: 47%; pest or weed control at 500 ppm [3, 18]: 55%; Number of leaves infected (outside) [3, 14]: 5; Number of leaves infected (inside) [3, 15]: 8; Average number of disease lesions per leaf ([1]; Table 2, untreated 34.2): 8.5
17 | CCCCCCCCCCCC(=O)N[C@@H](CCCN)C(=O)OC [compound 24] | – | 78 | – | – | – | – | pest or weed control at 500 ppm [4, 11]: 68%; Extent of infection [4]: 18%; pest or weed control at 500 ppm [3, 12]: 47%; pest or weed control at 500 ppm [3, 13]: 52%; Number of leaves infected (outside) [3, 14]: 6; Number of leaves infected (inside) [3, 15]: 8; Average number of disease lesions per leaf ([1]; Table 2, untreated 34.2): 7.3
18 | CCCCCCCCCCCCCC(=O)NCC(=O)O [compound 9] | 9.9 | 70 | 7 | 9 | – | – | pest or weed control at 500 ppm [3, 7]: 59%; pest or weed control at 500 ppm [3, 8]: 42%
19 | CCCCCCCCCCCC(=O)N[C@H](C(=O)O)C(C)C [compound 2] | 6.6 | 80 | – | – | – | – | –
20 | CCCCCCCCCCCCCCCCCC(=O)N[C@@H](CCCNC(=N)N)C(=O)OCC [compound 28] | – | 78 | – | – | – | – | pest or weed control at 500 ppm [4, 11]: 73%; Extent of infection [4]: 15%; Average number of disease lesions per leaf ([1]; Table 2, untreated 34.2): 7.3
21 | CCCCCCCCCCCCCCCCCC(=O)NC(C)C(=O)O (centres unmarked) [compound 7] | 5.9 | 82 | 5 | 8 | – | – | pest or weed control at 500 ppm [3, 7]: 64%; pest or weed control at 500 ppm [3, 8]: 58%
22 | CCCCCCCCCCCC(=O)N(C)CC(=O)O [compound 15] | 7.4 | 88 | – | – | – | – | –
23 | CCCCCCCCCCCC(=O)N[C@H](C(=O)O)C(C)C [No. 2, N-lauroyl-L-valine] | – | – | – | – | – | – | LD50 [5]: ~6000 mg/kg
24 | CCCCCCCCCCCC(=O)NCC(=O)O [compound 1] | 1.7 | 95 | 4 | 6 | 72 | 15 | pest or weed control at 500 ppm [3, 7]: 73%; pest or weed control at 500 ppm [3, 8]: 67%
25 | CCCCCCCCCCCC(=O)N[C@@H](CC(C)C)C(=O)O [compound 13] | 8.9 | 73 | 7 | 9 | – | – | pest or weed control at 500 ppm [3, 7]: 59%; pest or weed control at 500 ppm [3, 8]: 42%
26 | CCCCCCCCCCCC(=O)N[C@@H](CCCNC(=N)N)C(=O)OCC [compound 27] | – | 80 | – | – | – | – | pest or weed control at 500 ppm [4, 11]: 75%; Extent of infection [4]: 14%; pest or weed control at 500 ppm [3, 12]: 40%; pest or weed control at 500 ppm [3, 13]: 52%; Number of leaves infected (outside) [3, 14]: 6; Number of leaves infected (inside) [3, 15]: 9; Average number of disease lesions per leaf ([1]; Table 2, untreated 34.2): 6.8
